The values below come from BindingDB's records for PubMed 36812150 (China Pharmaceutical University, 2023).

This assay deals with Sucrase-isomaltase, intestinal (Rattus norvegicus, UniProt P23739). Kind of assay: Binding affinity to sucrase in rat small intestinal brush border membrane vesicles assessed as inhibition constant using sucrose as substrate incubated for 30 mins by glucose-oxidase method.
Sequence of Sucrase-isomaltase, intestinal (P23739 1-1013 limits assumed): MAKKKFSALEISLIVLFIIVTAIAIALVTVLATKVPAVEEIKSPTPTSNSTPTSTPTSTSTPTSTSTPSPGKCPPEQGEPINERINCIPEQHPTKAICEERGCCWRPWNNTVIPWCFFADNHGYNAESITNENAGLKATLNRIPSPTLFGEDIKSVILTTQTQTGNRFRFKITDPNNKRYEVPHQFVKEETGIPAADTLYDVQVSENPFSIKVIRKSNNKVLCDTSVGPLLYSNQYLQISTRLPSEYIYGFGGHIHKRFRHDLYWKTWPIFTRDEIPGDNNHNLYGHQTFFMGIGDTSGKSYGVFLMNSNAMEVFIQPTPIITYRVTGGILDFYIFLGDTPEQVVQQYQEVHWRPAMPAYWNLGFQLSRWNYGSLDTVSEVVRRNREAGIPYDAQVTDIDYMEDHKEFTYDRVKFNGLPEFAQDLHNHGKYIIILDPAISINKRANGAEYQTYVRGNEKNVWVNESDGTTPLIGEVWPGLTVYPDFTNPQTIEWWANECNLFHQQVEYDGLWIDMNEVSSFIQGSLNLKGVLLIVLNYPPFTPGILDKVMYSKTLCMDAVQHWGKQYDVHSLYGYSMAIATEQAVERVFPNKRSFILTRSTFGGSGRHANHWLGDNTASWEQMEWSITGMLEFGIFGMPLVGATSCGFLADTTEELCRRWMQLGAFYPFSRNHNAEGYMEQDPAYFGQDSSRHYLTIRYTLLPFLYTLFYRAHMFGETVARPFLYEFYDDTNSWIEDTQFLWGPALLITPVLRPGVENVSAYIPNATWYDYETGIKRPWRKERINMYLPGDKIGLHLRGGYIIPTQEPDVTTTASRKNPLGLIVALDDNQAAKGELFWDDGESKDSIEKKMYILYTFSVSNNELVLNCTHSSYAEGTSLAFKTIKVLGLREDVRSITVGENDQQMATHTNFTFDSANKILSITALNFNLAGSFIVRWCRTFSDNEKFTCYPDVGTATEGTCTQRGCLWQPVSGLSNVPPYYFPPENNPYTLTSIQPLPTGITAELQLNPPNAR
Sequence of Sucrase-isomaltase, intestinal (P23739 1014-1841 limits assumed): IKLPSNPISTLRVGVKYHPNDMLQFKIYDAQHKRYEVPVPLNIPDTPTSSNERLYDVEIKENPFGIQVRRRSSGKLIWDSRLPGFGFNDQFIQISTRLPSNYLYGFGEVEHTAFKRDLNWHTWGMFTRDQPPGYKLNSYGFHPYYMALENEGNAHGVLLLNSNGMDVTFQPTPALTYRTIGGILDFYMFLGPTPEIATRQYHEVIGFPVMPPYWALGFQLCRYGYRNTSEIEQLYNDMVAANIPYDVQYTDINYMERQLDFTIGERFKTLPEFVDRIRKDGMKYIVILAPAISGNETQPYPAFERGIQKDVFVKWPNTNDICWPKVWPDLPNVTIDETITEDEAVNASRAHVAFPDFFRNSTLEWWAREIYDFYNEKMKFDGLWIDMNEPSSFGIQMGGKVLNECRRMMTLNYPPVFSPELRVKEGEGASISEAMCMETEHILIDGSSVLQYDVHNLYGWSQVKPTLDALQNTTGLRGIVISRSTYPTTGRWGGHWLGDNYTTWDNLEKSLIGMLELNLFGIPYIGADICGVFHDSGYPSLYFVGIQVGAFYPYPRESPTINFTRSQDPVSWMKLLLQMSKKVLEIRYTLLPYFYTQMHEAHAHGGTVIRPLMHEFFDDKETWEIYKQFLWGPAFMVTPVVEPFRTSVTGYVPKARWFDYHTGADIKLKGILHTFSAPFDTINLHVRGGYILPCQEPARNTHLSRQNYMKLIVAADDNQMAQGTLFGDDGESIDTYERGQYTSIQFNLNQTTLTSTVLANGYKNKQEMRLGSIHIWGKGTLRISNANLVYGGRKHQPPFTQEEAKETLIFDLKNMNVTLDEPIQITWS

Turning to `OC[C@@H]1[C@@H](O)[C@H](O)C[S@+]1C[C@@H](O)[C@H]1OC(c2ccccc2)OC[C@H]1O` (stereo not given in full), the inhibitory constant (Ki) amounted to 310 nM.
On to `OC[C@@H]1[C@@H](O)[C@H](O)C[S@+]1C[C@@H](O)[C@H]1OC(c2ccccc2C(F)(F)F)OC[C@H]1O` (stereo not given in full), for which the Ki came to 190 nM.
In the case of `O=[N+]([O-])c1ccccc1C1OC[C@@H](O)[C@@H]([C@H](O)C[S@@+]2C[C@@H](O)[C@H](O)[C@H]2CO)O1` (stereo not given in full), the Ki was 160 nM.
With `OC[C@@H]1[C@@H](O)[C@H](O)C[S@+]1C[C@@H](O)[C@H]1OC(c2ccccc2Cl)OC[C@H]1O` (stereo not given in full), the Ki came to 210 nM.
Consider `OC[C@@H]1[C@@H](O)[C@H](O)C[S@+]1C[C@@H](O)[C@H]1OC(c2ccccc2F)OC[C@H]1O` (stereo not given in full), for which the Ki was 240 nM.
